# Results as given in US6214792A, “Method for treating acute and severe diarrhea” (priority 1999, dated 2001).
# Key:
# [1] = test system: patient addicted to narcotics; assay: Clinical treatment of acute and severe diarrhea accompanying rapid narcotic detoxification (acute withdrawal); type: in vivo, human; details: parenteral, about 0.025 mg to about 0.1 mg octreotide, preferably about 0.0007 mg/kg, before nalmefene
# Method: A medication to induce unconsciousness is administered, preferably by the intravenous route, in doses appropriate for the patient's weight and medical condition. This medication should be a non-opioid derivative not related to the narcotic classification of drugs, such as midazolam, propofol, sodium pentothal, a combination thereof, or other drugs commonly used to induce unconsciousness. As a specific example, a dose of 0.3 milligrams of midazolam per kilogram of body weight administered intravenously is usually sufficient to produce unconsciousness.
# After octreotide and glycopyrrolate have been administered and the patient's vital signs are stable, nalmefene is administered parenterally, preferably by intravenous route. For a 70 kilogram adult patient, the typical initial dose of parenteral nalmefene is from about 0.5-1.5 mg to no more than about 1.5-2.0 of nalmefene. The dosage is adjusted proportionally based on the weight of the patient, and the rate of administration of nalmefene may be titrated upward or downward depending on the response of the patient's sympathetic nervous system as evidence by monitoring of life functions and other clinical criteria. Some time thereafter, usually no more than four hours after said administration of nalmefene is complete, the patient can be expected to be detoxified and can be safely rendered back to a state of consciousness. […]
# [2] = test system: patient addicted to narcotics; details: background statement, prior practice, dose not given; cited from earlier work
# [3] = test system: patient addicted to narcotics; details: background statement, prior practice, dose not given; cited from earlier work; remark: listed apart in the source
# [4] = test system: patient addicted to narcotics; assay: Clinical tolerability (bradycardia, abdominal distention) of octreotide during rapid narcotic detoxification; details: parenteral
# Excerpt: A patient addicted to narcotics undergoes intravenous cannulation by either the peripheral or central venous route, and the appropriate intravenous solution is infused intravenously at the required rate for the size and conditions of the patient. Monitors of life function are attached to the patient which may include a pulse oximeter, electrocardiogram patches, a blood pressure cuff attached to a sphygmomanometer and a means to measure the carbon dioxide of the patient's exhaled breath by way of capnography.
# This is typically followed by intravenous administration of a medication such as a depolarizing or non-depolarizing neuromuscular blocking agent to facilitate intubation of the patient's trachea. The endotracheal tube is then secured in the correct anatomic position using usual anesthetic care measures. After stabilization of the patient's life functions as usually done in routine anesthetic management, the patient is administered parenterally about 0.025 mg to about 0.1 mg octreotide, preferably about 0.0007 mg/kg of body weight.
# As noted previously, glycopyrrolate is preferred and is administered parenterally with the octreotide in an amount ranging from about 0.2 mg to above 0.4 mg glycopyrrolate. However, from about 0.2 mg to about 0.4 mg atropine administered parenterally is also effective.
substance,measurement,setting,value
octreotide,prevention of acute and severe diarrhea accompanying acute detoxification,[1],sufficient to prevent the acute and severe diarrhea
same,treating clinically significant diarrhea during rapid detoxification,[2],proven effective
same,incidence of bradycardia,[3],unacceptable incidence of bradycardia
same,bradycardia in the post-detoxification period,[4]; about 0.025 mg to about 0.05 mg octreotide every 12 hours,without causing significant bradycardia
same,bradycardia,"[4]; about 0.025 mg to about 0.1 mg octreotide, preferably about 0.0007 mg/kg",does not precipitate significant bradycardia
same,abdominal distention,"[4]; about 0.025 mg to about 0.1 mg octreotide, distention frequently observed at higher dosage levels",does not result in the abdominal distention
